Assay results reported in patent US9499823B2, “Constructs expressing chimeric receptors and use thereof for the controlled activation of defence response to pathogens in plants” (priority 2009, dated 2016).

Legend:
[1] = tested on: agroinfiltrated Arabidopsis thaliana Col-0 leaves; test: Receptor internalization: decrease of GFP fluorescence by confocal microscopy in agroinfiltrated Arabidopsis Col-0 leaves; type: cell-based; conditions: for decrease of plasma membrane-associated fluorescence signal: explants at 2 dpi; for fluorescence variation upon treatment with elfl8: 10 μM elfl8, 30 min, EFR up to 1 mM elicitor (data not shown); for fluorescence variation upon treatment with OGs: up to 30 min, no EDTA; for decrease of fluorescence from the cell membrane: OGs 100 μg/ml 30 min pre-stimulation, then 5 mM EDTA
Method: PCR templates are shown in bold. Primers listed in Table 1 are shown in capital letters. Stable transgenic lines were generated using the standard A. tumefaciens-mediated gene transfer procedure of inflorescence infiltration (Bent et al., 2006). Independent transformed plant pools were kept separate for the selection of independent transgenic lines based on their phosphinotrycin resistance and leaves GFP fluorescence. Tobacco and Arabidopsis transient transgenic lines were prepared by infiltrating with Agrobacterium tumefaciens carrying the individual constructs, as described by Reca (2008).
The GFP-dependent fluorescence was monitored from 2 to 4 days post infection in cells of the lower epidermis. Pieces of leaf were randomly cut from the infected area and mounted in water or supplemented with elicitors for microscopic observations. Flg22 and elfl8 were used at 10 μM while oligosaccharides were used at 100 μg/mL. Materials were analyzed using a Leica DM IRE epifluorescence microscope equipped with a digital cooled camera (DFC350FX R2; Leica). GFP fluorescence was excited with a 488-nm laser line, and emitted fluorescence was collected at 543-nm. The Leica Confocal Software and Adobe Photoshop 5.0 were used for post-acquisition image processing. All samples were imaged with the 40× or 100× oil objectives. Pictures were taken in Kahlman frame giving an average of 16 scans for the dynamics of internalization and 4 scans for the cellular localizations. […]
The dynamics of fluorescence localization upon treatment with elicitors was then studied. Whereas endocytosis of surface receptors upon ligand binding often occurs in animals (Warren and Landgraf 2006), this mechanism in plants has emerged only recently (Geldner & Robatzek 2008) and, so far, FLS2 is the only receptor involved in plant immunity shown to undergo endocytosis upon the specific stimulation with flg22 (Robatzek et al., 2006). The authors tested the effect of flg22 and elf 18, i.e. the peptides specifically recognized by FLS2 and EFR respectively, and oligogalacturonides with a degree of polymerization between 10 and 16 (OGs), which act as general elicitors of defense responses in several plants. Explants from agroinfiltrated Arabidopsis leaves at 2 dpi were treated with elicitors and then subjected to confocal microscopy analysis. […] Instead, when eJMC-expressing explants were stimulated with flg22, the fluorescent signal decreased by 25% and 40% after 20 min and 30 min, respectively (FIG. 3B).
The first chimeric receptor, indicated as WEG, comprised the WAK1 ectodomain fused to the TM-iJM-kinase portion of EFR and was designed to test the ability of the WAK1 ectodomain to perceive OGs and transmit the signal inside the cell. […] Both WEG and EWAK as well as WAK1 were fused to GFP and used in agroinfiltration experiments (FIG. 5A). […] Western-blot analysis using GFP-specific antibodies on proteins from IWF and microsomal fractions prepared from infiltrated leaves confirmed the plasma membrane localization of both fluorescent chimeras (FIG. 5D). The effect of OGs on the internalization of WEG was followed in agroinfiltrated Arabidopsis Col-0 leaves. […] This might be due to the inability of WEG to uncouple its ectodomain from pectins, since it is known that WAK1 strongly binds to pectin and only denaturing treatments allow its separation from cell wall (He et al., 1996). On the other hand, affinity studies have shown that WAK1 interact with cell wall pectins that are in a Ca^2+-induced conformation (i.e. the structures called “egg boxes”) and that the interaction is disrupted by adding a chelating agent such as EDTA (Decreux et al., 2005; Cabrera et al., 2008). The authors therefore tested whether OG-induced internalization of WEG occurred in the presence of 5 mM EDTA. WEG-expressing agroinfiltrated leaves were syringe-infiltrated with OGs and after 30 min the tissues were mounted in the presence of EDTA for confocal microscopy analysis. […]

[2] = tested on: agroinfiltrated leaves of N. tabacum ecotype SR1; test: Receptor internalization in agroinfiltrated tobacco leaves; type: cell-based, Nicotiana tabacum
Method: E) Relative variation of fluorescence in agroinfiltrated tobacco leaves expressing EFR, FLS2, eJMC and TMC and treated with 10 μM elfl8 or 10 μM flg22 for 30 min.
The GFP-dependent fluorescence was monitored from 2 to 4 days post infection in cells of the lower epidermis. Pieces of leaf were randomly cut from the infected area and mounted in water or supplemented with elicitors for microscopic observations. Flg22 and elfl8 were used at 10 μM while oligosaccharides were used at 100 μg/mL. Materials were analyzed using a Leica DM IRE epifluorescence microscope equipped with a digital cooled camera (DFC350FX R2; Leica). GFP fluorescence was excited with a 488-nm laser line, and emitted fluorescence was collected at 543-nm. The Leica Confocal Software and Adobe Photoshop 5.0 were used for post-acquisition image processing. All samples were imaged with the 40× or 100× oil objectives. Pictures were taken in Kahlman frame giving an average of 16 scans for the dynamics of internalization and 4 scans for the cellular localizations.
The behaviour of TMC and eJMC upon treatment with flg22 and elfl8 was also analysed in agroinfiltrated leaves of N. tabacum ecotype SR1 and compared to that of EFR and FLS2. […] Instead, in the eJMC expressing plants fluorescence decreased within 10-30 min after stimulation with flg22, at an extent similar to that observed in Arabidopsis, i.e. by 25% and 35% after 20 min and 30 min, respectively (FIG. 3E).

[3] = 10 μM flg22, after 20 min of stimulation
[4] = 10 μM flg22, after 30 min of stimulation

In the case of FLS2 [reference compound], the “decrease of plasma membrane-associated fluorescence signal” value [1, 3] is reported as 15%, the “decrease of plasma membrane-associated fluorescence signal” value [1, 4] is reported as 30% and the “decrease of fluorescence in the presence of EDTA upon stimulation with OGs” value ([1]; 100 μg/ml OGs, 5 mM EDTA) is reported as “No decrease of fluorescence”. The “internalization after stimulation with flg22” value ([2]; 10 μM flg22, 30 min) was “Neither FLS2 nor TMC underwent internalization”.

With “eJMC: chimera (Arg806FLS2-Val650EFR): LRR and eJM domains of FLS2 fused upstream of TM, iJM and kinase domains of EFR, GFP-fused” the “fluorescence variation upon treatment with elfl8” value [1] was “did not induce any significant fluorescence variation”, the “decrease of plasma membrane-associated fluorescence signal” value [1, 3] was 25% and the “decrease of plasma membrane-associated fluorescence signal” value [1, 4] was 40%. For the same molecule, the “fluorescence variation upon treatment with OGs” value ([1]; 100 μg/ml OGs) was “did not induce any significant fluorescence variation”, the “fluorescence decrease after stimulation with flg22” value ([2]; 10 μM flg22, after 20 min) was 25% and the “fluorescence decrease after stimulation with flg22” value ([2]; 10 μM flg22, after 30 min) was 35%.

B1: EFR: Arabidopsis LRR receptor kinase Elongation Factor Tu Receptor (AT5G20480); GFP-fused control (protein)
chain: RFSNETDMQALLEFKSQVSENNKREVLASWNHSSPFCNWIGVTCGRRRERVISLNLGGFKLTGVISPSIGNLSFLRLLNLADNSFGSTIPQKVGRLFRLQYLNMSYNLLEGRIPSSLSNCSRLSTVDLSSNHLGHGVPSELGSLSKLAILDLSKNNLTGNFPASLGNLTSLQKLDFAYNQMRGEIPDEVARLTQMVFFQIALNSFSGGFPPALYNISSLESLSLADNSFSGNLRADFGYLLPNLRRLLLGTNQFTGAIPKTLANISSLERFDISSNYLSGSIPLSFGKLRNLWWLGIRNNSLGNNSSSGLEFIGAVANCTQLEYLDVGYNRLGGELPASIANLSTTLTSLFLGQNLISGTIPHDIGNLVSLQELSLETNMLSGELPVSFGKLLNLQVVDLYSNAISGEIPSYFGNMTRLQKLHLNSNSFHGRIPQSLGRCRYLLDLWMDTNRLNGTIPQEILQIPSLAYIDLSNNFLTGHFPEEVGKLELLVGLGASYNKLSGKMPQAIGGCLSMEFLFMQGNSFDGAIPDISRLVSLKNVDFSNNNLSGRIPRYLASLPSLRNLNLSMNKFEGRVPTTGVFRNATAVSVFGNTNICGGVREMQLKPCIVQASPRKRKPLSVRKKVVSGICIGIASLLLIIIVASLCWFMKRKKKNNASDGNPSDSTTLGMFHEKVSYEELHSATSRFSSTNLIGSGNFGNVFKGLLGPENKLVAVKVLNLLKHGATKSFMAECETFKGIRHRNLVKLITVCSSLDSEGNDFRALVYEFMPKGSLDMWLQLEDLERVNDHSRSLTPAEKLNIAIDVASALEYLHVHCHDPVAHCDIKPSNILLDDDLTAHVSDFGLAQLLYKYDRESFLNQFSSAGVRGTIGYAAPEYGMGGQPSIQGDVYSFGILLLEMFSGKKPTDESFAGDYNLHSYTKSILSGCTSSGGSNAIDEGLRLVLQVGIKCSEEYPRDRMRTDEAVRELISIRSKFFSSKTTITESPRDAPQSSPQEWMLNTDMHTM
In the case of B1, the “fluorescence variation upon treatment with elfl8” value [1] is reported as “no significant decrease of fluorescence” and the “internalization response upon stimulation with elfl8” value ([2]; 10 μM elfl8, 30 min) is reported as “no response”.

B2: WEG: chimeric receptor: WAK1 ectodomain fused to the TM-iJM-kinase portion of EFR, GFP-fused (protein)
chain: QHQPGENCQNKCGNITIEYPFGISSGCYYPGNESFSITCKEDRPHVLSDIEVANFNHSGQLQVLLNRSSTCYDEQGKKTEEDSSFTLENLSLSANNKLTAVGCNALSLLDTFGMQNYSTACLSLCDSPPEADGECNGRGCCRVDVSAPLDSYTFETTSGRIKHMTSFHDFSPCTYAFLVEDDKFNFSSTEDLLNLRNVMRFPVLLDWSVGNQTCEQVGSTSICGGNSTCLDSTPRNGYICRCNEGFDGNPYLSAGCQDVNECTTSSTIHRHNCSDPKTCRNKVGGFYCKCQSGYRLDTTTMSCKRKEVVSGICIGIASLLLIIIVASLCWFMKRKKKNNASDGNPSDSTTLGMFHEKVSYEELHSATSRFSSTNLIGSGNFGNVFKGLLGPENKLVAVKVLNLLKHGATKSFMAECETFKGIRHRNLVKLITVCSSLDSEGNDFRALVYEFMPKGSLDMWLQLEDLERVNDHSRSLTPAEKLNIAIDVASALEYLHVHCHDPVAHCDIKPSNILLDDDLTAHVSDFGLAQLLYKYDRESFLNQFSSAGVRGTIGYAAPEYGMGGQPSIQGDVYSFGILLLEMFSGKKPTDESFAGDYNLHSYTKSILSGCTSSGGSNAIDEGLRLVLQVGIKCSEEYPRDRMRTDEAVRELISIRSKFFSSKTTITESPRDAPQSSPQEWMLNTDMHTM
modifications: left off: large carriers
With B2 the “decrease of fluorescence in the presence of EDTA upon stimulation with flg22” value ([1]; 10 μM flg22, 5 mM EDTA) was “No decrease of fluorescence”, the “internalization in the presence of EDTA upon stimulation with oligomannuronides (OMs)” value ([1]; 100 μg/mL OMs, EDTA) was “did not occur” and the “internalization in the presence of EDTA upon stimulation with 3-6 OGs” value ([1]; 100 μg/ml 3-6 OGs, EDTA) was “did not occur”. For the same molecule, the “fluorescence variation upon treatment with OGs” value ([1]; 100 μg/ml OGs) was “No decrease of the plasma membrane-associated fluorescence”, the “decrease of fluorescence from the cell membrane” value ([1]; after 20 min) was 15% and the “decrease of fluorescence from the cell membrane” value ([1]; after 30 min) was 25%.
